Measurements from patent publication US20200171056A1, “SULFONYLUREA COMPOUNDS IN THE TREATMENT OF DISEASE ASSOCIATED WITH UV-INDUCED DAMAGE” (CeMM - Forschungszentrum für Molekulare Medizin GmbH, priority 2017, published 2020).

What was measured:
WT cells = experiment: Cell viability of WT cells after UV exposure, comparison with antioxidant; type: cell-based, human; settings: 30 μM NAC for 6 hours, then 30 J/M^2 UV, compared with 0.5 mM acetohexamide (FIG. 8E)
Procedure: A. WT and ΔXPA cells were either treated with DMSO or 0.5 mM acetohexamide for 6 hours. Cell cycle profiles were determined using propidium iodide (P1) staining followed by FACS analysis. B-D. Survival of WT HAP1 cells treated with either DMSO or 0.5 mM acetohexamide for 6 hours, followed by exposure to the indicated DNA damaging agents (MMC: mitomycin C; HU: hydroxyl urea; MMS: methyl methanesulfonate). Survival was assessed after 3 days using CellTitre-Glo. E. Cell viability of WT cells treated either with 0.5 mM acetohexamide or 30 μM N-acetylcysteine (NAC) for 6 hours, followed by 30 J/M^2 UV exposure.
(§1) For UV irradiation, cells were washed with PBS, trypsinized, counted and distributed in equal number then irradiated with different doses of UV as indicated. Finally, 1,000 cells were re-distributed into 96 well plates. After 72 hours, survival was measured using Cell Titer-Glo (Promega). Cells were irradiated with UVC using the UVP CX-2000 device (254 nm, Fisher Scientific).

ΔXPA cells = experiment: Short-term survival after UV irradiation (CellTiter-Glo); type: cell-based, human; settings: for protective effect of ΔXPA cells against UV (cell viability): different concentrations for 6 hours, then 10 J/M^2 UV (FIG. 10A-C)
From the text: A. Schematic representation of the experimental setup used to perform the high-throughput drug screen, where drugs were used at five-times maximal plasma concentration (CLOUD; CeMM library of unique drugs). B. Bubble plot displaying the drugs used plotted against cell viability. Light grey bubbles indicate wildtype (WT) cells, dark grey bubbles indicate XPA-deficient cells (ΔXPA). […] C. Chemical structure of acetohexamide. D. Dose-response curve of WT and ΔXPA cells treated with or without 0.5 mM acetohexamide for 6 hours, followed by UV irradiation. Survival was assessed after 3 days, using CellTiter-Glo. […] Error bars indicate SEM (n=3). E. Colony formation using the same conditions indicated in (D), where cells were kept in culture for 10 days following UV irradiation, following which they were fixed and stained.
A-C. Cell viability of ΔXPA cells treated with different concentrations of acetohexamide (aceto), gliclazide (GLC) and glimepiride (GLM) for 6 hours, followed by 10 J/M^2 of UV irradiation. D. Survival of WT and ΔXPA cells treated with or without 50 μM glibenclamide for 6 hours, followed by UV exposure. Survival was assessed after 3 days using CellTitre-Glo. E. Cell viability of ΔXPA cells treated with 10 μM of different derivatives of acetohexamide for 6 hours, followed by UV irradiation with 5 J/M^2.
as §1

Question: For CC(=O)N[C@@H](CS)C(=O)O [N-acetylcysteine], which “alleviating UV-induced sensitivity (cell viability)” value (WT cells) is on record?
Answer: very minor effect in alleviating UV-induced sensitivity compared to acetohexamide

Question: Which “protective effect of ΔXPA cells against UV (cell viability)” value (ΔXPA cells) does the source give for CCC1=C(C)CN(C(=O)NCCc2ccc(S(=O)(=O)NC(=O)N[C@H]3CC[C@H](C)CC3)cc2)C1=O [glimepiride] here?
Answer: showed a protective effect

Question: For COc1ccc(Cl)cc1C(=O)NCCc1ccc(S(=O)(=O)NC(=O)NC2CCCCC2)cc1 [glibenclamide], which “protective effect of ΔXPA cells against UV (survival)” value (ΔXPA cells; 50 μM for 6 hours, then UV, survival after 3 days (FIG. 10D)) is on record?
Answer: Only glimepiride showed a protective effect

Question: For Cc1ccc(S(=O)(=O)NC(=O)NN2CC3CCCC3C2)cc1 (stereo not shown) [gliclazide], which “protective effect of ΔXPA cells against UV (cell viability)” value (ΔXPA cells) is on record?
Answer: Only glimepiride showed a protective effect
